# Test results as given in patent publication US11911468B2, “Compositions and methods of treating sarcoma lung metastasis” (CASE WESTERN RESERVE UNIVERSITY, priority 2017, dated 2024).
# “Also recorded” adds a separate entry of the source.
# System: K7M2-luc2 pOS (VCAM-1/α4β1 interaction)
# Experiment: Established pOS after K7M2-luc2 i.v., weekly intranasal blockade of VCAM-1/a4 from Day 7
# Assay type: in vivo, Balb/c mice
# Conditions: 50 μg i.n. weekly from Day 7
# Experimental: FIGS. 9A-C illustrate targeting site-specific VCAM-1/a4 interaction blunted established pOS growth in vivo. (A) Balb/c mice were inoculated with 5×10^5 K7M2-luc2 i.v. on Day 0, and then treated with i.n. PBS, 50 μg iVCAM-1p, or 50 μg PS/2 (anti-a4) antibody weekly starting on Day 7. (A) representative images of mice up to 35 days. […] (C) 60% and 80% of pOS mice remained tumor free 1 month after weekly i.n. treatment with PS/2 antibody (filled circle) or iVCAM-1p (filled triangle), respectively. N=5-8 in each cohort.
# To strengthen the crucial link between tVCAM-1 and α4β1 (FIGS. 5-8) and pOS survival, we performed pilot experiments to test whether direct functional blockade of VCAM-1/α4β1 interaction in the lung would result in the same pOS outcome as observed with MACs depletion. In collaboration with Nicole Steinmetz in CWRU School of Engineering, we treated mice (inoculated 7 days prior with a lethal dose of K7M2 i.v.) with weekly i.n. administration of 50 μg of a VCAM-1 inhibitory peptide (iVCAM-1p; amino acid sequence: VHPKQHR (SEQ ID NO: 1)). […] These pilot observations strengthen our hypothesis that pOS-MAC critically interact through the VCAM-1/α4 axis. […] As we administered mAb via i.n. route, much of the reported side effects of chronic systemic Natalizumab exposure (such as hepatic injury and progressive multifocal leukoencephalopathy) can potentially be limited by reducing the dose and targeting locally in the lung.
substance,measurement,setting,value
VHPKQHR [iVCAM-1p],pOS tumor incidence,,dramatic decreased
same,"tumor burden (relative BLI intensity, Day 7 BLI set as 1)",,dramatic decreased; also recorded: reduced tumor burden
same,mice remaining tumor free,1 month after treatment,80%
